Measurements taken from PubChem BioAssay AID2060903 (Molecular Pharmacology Branch, DTP, NCI, 2025).
pIC50: −log10 of the molar value.

System: 377384-186-R-J1-PDC complex spheroid viability
Assay: Anticancer human tumor 377384-186-R-J1-PDC patient-derived pancreatic carcinoma cell line growth inhibition [RAS]
Conditions: for pIC50: curve of first compound; for viability, T/C: stronger effect = lower value
Procedure, shortened: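 Agents were tested in combination matrices in half-log decrements from a top concentration at or near clinical Cmax (10 microM if undetermined). Targets were multi-cell spheroids of tumour lines plus HUVEC and MSC stromal cells.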

[1] = second compound 0.0316 µM, first compound 0.0316 µM
[2] = second compound 0.0316 µM, first compound 0.1 µM
[3] = second compound 0.0316 µM, first compound 0.316 µM
[4] = second compound 0.0316 µM, first compound 1 µM
[5] = second compound 0.1 µM, first compound 0.0316 µM
[6] = second compound 0.1 µM, first compound 0.1 µM
[7] = second compound 0.1 µM, first compound 0.316 µM
[8] = second compound 0.1 µM, first compound 1 µM
[9] = second compound 0.316 µM, first compound 0.0316 µM
[10] = second compound 0.316 µM, first compound 0.1 µM
[11] = second compound 0.316 µM, first compound 0.316 µM
[12] = second compound 0.316 µM, first compound 1 µM
[13] = second compound 1 µM, first compound 0.0316 µM
[14] = second compound 1 µM, first compound 0.1 µM
[15] = second compound 1 µM, first compound 0.316 µM
[16] = second compound 1 µM, first compound 1 µM
[17] = second compound 3.16 µM, first compound 0.0316 µM
[18] = second compound 3.16 µM, first compound 0.1 µM
[19] = second compound 3.16 µM, first compound 0.316 µM
[20] = second compound 3.16 µM, first compound 1 µM
[21] = second compound 10 µM, first compound 0.0316 µM
[22] = second compound 10 µM, first compound 0.1 µM
[23] = second compound 10 µM, first compound 0.316 µM
[24] = second compound 10 µM, first compound 1 µM
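Note: spheroids exposed to compounds for seven days before readout.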

SMILES: C=CC(=O)N1CCN(c2nc(OCC3CCCN3C)nc3c(F)c(-c4nc(N)cc(C)c4C(F)(F)F)c(Cl)cc23)C(C)C1 (stereo unspecified) + C#Cc1c(F)ccc2cc(O)cc(-c3ncc4c(N5CC6CCC(C5)N6)nc(OCC56CCCN5CC(F)C6)nc4c3F)c12
- pIC50 (second compound 0.0316 µM): > 8.50
- pIC50 (second compound 0.1 µM): > 8.50
- pIC50 (second compound 0.316 µM): > 8.50
- pIC50 (second compound 1 µM): > 8.50
- pIC50 (second compound 3.16 µM): > 8.50
- pIC50 (second compound 10 µM): > 8.50
- viability, T/C (second compound 0.0316 µM, first compound 0.00316 µM): 24.6%
- viability, T/C (second compound 0.0316 µM, first compound 0.01 µM): 16.6%
- viability, T/C [1]: 20.2%
- viability, T/C [2]: 20.3%
- viability, T/C [3]: 10.2%
- viability, T/C [4]: 9.03%
- viability, T/C (second compound 0.1 µM, first compound 0.00316 µM): 14.6%
- viability, T/C (second compound 0.1 µM, first compound 0.01 µM): 9.29%
- viability, T/C [5]: 10.7%
- viability, T/C [6]: 9.27%
- viability, T/C [7]: 5.71%
- viability, T/C [8]: 5.75%
- viability, T/C (second compound 0.316 µM, first compound 0.00316 µM): 5.54%
- viability, T/C (second compound 0.316 µM, first compound 0.01 µM): 5.26%
- viability, T/C [9]: 4.78%
- viability, T/C [10]: 5.36%
- viability, T/C [11]: 4.48%
- viability, T/C [12]: 2.79%
- viability, T/C (second compound 1 µM, first compound 0.00316 µM): 3.22%
- viability, T/C (second compound 1 µM, first compound 0.01 µM): 2.82%
- viability, T/C [13]: 3.82%
- viability, T/C [14]: 3.54%
- viability, T/C [15]: 3.08%
- viability, T/C [16]: 3.36%
- viability, T/C (second compound 3.16 µM, first compound 0.00316 µM): 1.84%
- viability, T/C (second compound 3.16 µM, first compound 0.01 µM): 2.35%
- viability, T/C [17]: 2.16%
- viability, T/C [18]: 1.87%
- viability, T/C [19]: 2.05%
- viability, T/C [20]: 2.48%
- viability, T/C (second compound 10 µM, first compound 0.00316 µM): 1.31%
- viability, T/C (second compound 10 µM, first compound 0.01 µM): 1.46%
- viability, T/C [21]: 0.83%
- viability, T/C [22]: 1.21%
- viability, T/C [23]: 1.13%
- viability, T/C [24]: 0.62%

SMILES: CC(=O)OC12COC1CC(O)C1(C)C(=O)C(O)C3=C(C)C(OC(=O)C(O)C(NC(=O)OC(C)(C)C)c4ccccc4)CC(O)(C(OC(=O)c4ccccc4)C21)C3(C)C (stereo unspecified) + C#Cc1c(F)ccc2cc(O)cc(-c3ncc4c(N5CC6CCC(C5)N6)nc(OCC56CCCN5CC(F)C6)nc4c3F)c12
- pIC50 (second compound 0.0316 µM): > 7.50
- pIC50 (second compound 0.1 µM): > 7.50
- pIC50 (second compound 0.316 µM): > 7.50
- pIC50 (second compound 1 µM): > 7.50
- pIC50 (second compound 3.16 µM): > 7.50
- pIC50 (second compound 10 µM): > 7.50
- viability, T/C [1]: 2.38%
- viability, T/C [2]: 3.09%
- viability, T/C [3]: 3.14%
- viability, T/C [4]: 3.55%
- viability, T/C (second compound 0.0316 µM, first compound 3.16 µM): 3.94%
- viability, T/C (second compound 0.0316 µM, first compound 10 µM): 3.06%
- viability, T/C [5]: 2.23%
- viability, T/C [6]: 2.57%
- viability, T/C [7]: 2.12%
- viability, T/C [8]: 1.89%
- viability, T/C (second compound 0.1 µM, first compound 3.16 µM): 1.87%
- viability, T/C (second compound 0.1 µM, first compound 10 µM): 3.18%
- viability, T/C [9]: 2.05%
- viability, T/C [10]: 2.18%
- viability, T/C [11]: 2%
- viability, T/C [12]: 2.01%
- viability, T/C (second compound 0.316 µM, first compound 3.16 µM): 2.08%
- viability, T/C (second compound 0.316 µM, first compound 10 µM): 1.78%
- viability, T/C [13]: 1.73%
- viability, T/C [14]: 1.59%
- viability, T/C [15]: 1.53%
- viability, T/C [16]: 1.76%
- viability, T/C (second compound 1 µM, first compound 3.16 µM): 1.09%
- viability, T/C (second compound 1 µM, first compound 10 µM): 1.72%
- viability, T/C [17]: 1.58%
- viability, T/C [18]: 1.73%
- viability, T/C [19]: 1.51%
- viability, T/C [20]: 1.74%
- viability, T/C (second compound 3.16 µM, first compound 3.16 µM): 1.58%
- viability, T/C (second compound 3.16 µM, first compound 10 µM): 1.95%
- viability, T/C [21]: 0.77%
- viability, T/C [22]: 0.5%
- viability, T/C [23]: 0.68%
- viability, T/C [24]: 0.75%
- viability, T/C (second compound 10 µM, first compound 3.16 µM): 0.42%
- viability, T/C (second compound 10 µM, first compound 10 µM): 0.94%

SMILES: CCc1c2c(nc3ccc(O)cc13)-c1cc3c(c(=O)n1C2)COC(=O)[C@]3(O)CC + C#Cc1c(F)ccc2cc(O)cc(-c3ncc4c(N5CC6CCC(C5)N6)nc(OCC56CCCN5CC(F)C6)nc4c3F)c12
- pIC50 (second compound 0.0316 µM): > 9.02
- pIC50 (second compound 0.1 µM): > 9.02
- pIC50 (second compound 0.316 µM): > 9.02
- pIC50 (second compound 1 µM): > 9.02
- pIC50 (second compound 3.16 µM): > 9.02
- pIC50 (second compound 10 µM): > 9.02
- viability, T/C (second compound 0.0316 µM, first compound 0.000949 µM): 19.9%
- viability, T/C (second compound 0.0316 µM, first compound 0.003 µM): 11.3%
- viability, T/C (second compound 0.0316 µM, first compound 0.00949 µM): 6.54%
- viability, T/C (second compound 0.0316 µM, first compound 0.03 µM): 4.38%
- viability, T/C (second compound 0.0316 µM, first compound 0.0949 µM): 1.63%
- viability, T/C (second compound 0.0316 µM, first compound 0.3 µM): 1.45%
- viability, T/C (second compound 0.1 µM, first compound 0.000949 µM): 10.2%
- viability, T/C (second compound 0.1 µM, first compound 0.003 µM): 5.47%
- viability, T/C (second compound 0.1 µM, first compound 0.00949 µM): 3.3%
- viability, T/C (second compound 0.1 µM, first compound 0.03 µM): 2.38%
- viability, T/C (second compound 0.1 µM, first compound 0.0949 µM): 1.62%
- viability, T/C (second compound 0.1 µM, first compound 0.3 µM): 1.48%
- viability, T/C (second compound 0.316 µM, first compound 0.000949 µM): 4.45%
- viability, T/C (second compound 0.316 µM, first compound 0.003 µM): 3.34%
- viability, T/C (second compound 0.316 µM, first compound 0.00949 µM): 2.87%
- viability, T/C (second compound 0.316 µM, first compound 0.03 µM): 1.65%
- viability, T/C (second compound 0.316 µM, first compound 0.0949 µM): 1.51%
- viability, T/C (second compound 0.316 µM, first compound 0.3 µM): 1.36%
- viability, T/C (second compound 1 µM, first compound 0.000949 µM): 3.89%
- viability, T/C (second compound 1 µM, first compound 0.003 µM): 2.04%
- viability, T/C (second compound 1 µM, first compound 0.00949 µM): 2.4%
- viability, T/C (second compound 1 µM, first compound 0.03 µM): 1.31%
- viability, T/C (second compound 1 µM, first compound 0.0949 µM): 1.14%
- viability, T/C (second compound 1 µM, first compound 0.3 µM): 1.05%
- viability, T/C (second compound 3.16 µM, first compound 0.000949 µM): 1.66%
- viability, T/C (second compound 3.16 µM, first compound 0.003 µM): 2.07%
- viability, T/C (second compound 3.16 µM, first compound 0.00949 µM): 2.02%
- viability, T/C (second compound 3.16 µM, first compound 0.03 µM): 1.73%
- viability, T/C (second compound 3.16 µM, first compound 0.0949 µM): 1.46%
- viability, T/C (second compound 3.16 µM, first compound 0.3 µM): 0.91%
- viability, T/C (second compound 10 µM, first compound 0.000949 µM): 1.73%
- viability, T/C (second compound 10 µM, first compound 0.003 µM): 0.98%
- viability, T/C (second compound 10 µM, first compound 0.00949 µM): 1.39%
- viability, T/C (second compound 10 µM, first compound 0.03 µM): 1.15%
- viability, T/C (second compound 10 µM, first compound 0.0949 µM): 0.97%
- viability, T/C (second compound 10 µM, first compound 0.3 µM): 0.48%
